The NIST ThermoML archive (doi:10.1016/j.jct.2018.12.031)

Tests used:
[1] = xn = mol fraction of the nth substance listed; conditions: 100 kPa, Liquid; for speed of sound: Frequency=3 MHz, Linear variable-path acoustic interferometer; for mass density: Pycnometric method
[2] = 100 kPa, Liquid, Frequency=3 MHz, Linear variable-path acoustic interferometer

C=C(C)C(=O)OC [methyl methacrylate] + N#Cc1ccccc1
[1], x2 = 0
Conditions | mass density [kg/m3] | speed of sound [m/s]
293.15 K | 943.38 | 1200.5
298.15 K | 937.64 | 1183.6
303.15 K | 931.9 | 1168.5
308.15 K | 926.16 | 1152.6
313.15 K | 920.42 | 1135.4
318.15 K | 914.67 | 1118.3

N#Cc1ccccc1 [benzonitrile] + C=C(C)C(=O)OCCCC
[1], x1 = 1
Conditions | mass density [kg/m3] | speed of sound [m/s]
293.15 K | 1003.99 | 1436.9
298.15 K | 1000.32 | 1418.2
303.15 K | 996.65 | 1400.7
308.15 K | 992.98 | 1384
313.15 K | 989.31 | 1368.2
318.15 K | 985.64 | 1352.9

N#Cc1ccccc1 [benzonitrile]
[2]
Conditions | speed of sound [m/s]
293.15 K | 1436.9
298.15 K | 1418.2
303.15 K | 1400.7
308.15 K | 1384
313.15 K | 1368.2
318.15 K | 1352.9

N#Cc1ccccc1 [benzonitrile] + C=C(C)C(=O)OCC
[1], x1 = 1
Conditions | mass density [kg/m3] | speed of sound [m/s]
293.15 K | 1003.99 | 1436.9
298.15 K | 1000.32 | 1418.2
303.15 K | 996.65 | 1400.7
308.15 K | 992.98 | 1384
313.15 K | 989.31 | 1368.2
318.15 K | 985.64 | 1352.9
